Test results taken from article PMC10006169, “A phase I trial of LXS196, a protein kinase C (PKC) inhibitor, for metastatic uveal melanoma” (British Journal of Cancer, 2023).

Test system: patients with MUM
Assay: Adverse events suspected to be study drug related (NCI-CTCAE v4.03)
Assay type: in vivo, human
Description: Routine safety assessments, including laboratory assessments, physical examinations, vital signs and electrocardiograms (ECGs), were conducted at regular intervals throughout the study and more frequently as needed following patient assessment by the treating physician. Adverse events (AEs) were assessed continuously according to the National Cancer Institute Common Terminology Criteria for Adverse Events (NCI-CTCAE) v4.03.

SMILES: CC1(N)CCN(c2cccnc2NC(=O)c2nc(-c3ncccc3C(F)(F)F)cnc2N)CC1 [LXS196]
- ALT increased, all grades (100 mg QD): 0 n (%)
- ALT increased, grade ≥3 (100 mg QD): 0 n (%)
- AST increased, all grades (100 mg QD): 0 n (%)
- AST increased, grade ≥3 (100 mg QD): 0 n (%)
- Asthenia, all grades (100 mg QD): 0 n (%)
- Asthenia, grade ≥3 (100 mg QD): 0 n (%)
- Blood creatinine increased, all grades (100 mg QD): 0 n (%)
- Blood creatinine increased, grade ≥3 (100 mg QD): 0 n (%)
- Constipation, all grades (100 mg QD): 1 (33.3) n (%)
- Constipation, grade ≥3 (100 mg QD): 0 n (%)
- Diarrhoea, all grades (100 mg QD): 1 (33.3) n (%)
- Diarrhoea, grade ≥3 (100 mg QD): 0 n (%)
- Dry skin, all grades (100 mg QD): 0 n (%)
- Dry skin, grade ≥3 (100 mg QD): 0 n (%)
- Fatigue, all grades (100 mg QD): 0 n (%)
- Fatigue, grade ≥3 (100 mg QD): 0 n (%)
- Hypotension, all grades (100 mg QD): 0 n (%)
- Hypotension, grade ≥3 (100 mg QD): 0 n (%)
- Nausea, all grades (100 mg QD): 2 (66.7) n (%)
- Nausea, grade ≥3 (100 mg QD): 0 n (%)
- Patients with ≥1 AE, all grades (100 mg QD): 2 (66.7) n (%)
- Patients with ≥1 AE, grade ≥3 (100 mg QD): 0 n (%)
- Rash, all grades (100 mg QD): 0 n (%)
- Rash, grade ≥3 (100 mg QD): 0 n (%)
- Vomiting, all grades (100 mg QD): 0 n (%)
- Vomiting, grade ≥3 (100 mg QD): 0 n (%)
- ALT increased, all grades (200 mg QD): 0 n (%)
- ALT increased, grade ≥3 (200 mg QD): 0 n (%)
- AST increased, all grades (200 mg QD): 0 n (%)
- AST increased, grade ≥3 (200 mg QD): 0 n (%)
- Asthenia, all grades (200 mg QD): 1 (25.0) n (%)
- Asthenia, grade ≥3 (200 mg QD): 0 n (%)
- Blood creatinine increased, all grades (200 mg QD): 1 (25.0) n (%)
- Blood creatinine increased, grade ≥3 (200 mg QD): 0 n (%)
- Constipation, all grades (200 mg QD): 2 (50.0) n (%)
- Constipation, grade ≥3 (200 mg QD): 0 n (%)
- Diarrhoea, all grades (200 mg QD): 1 (25.0) n (%)
- Diarrhoea, grade ≥3 (200 mg QD): 0 n (%)
- Dry skin, all grades (200 mg QD): 0 n (%)
- Dry skin, grade ≥3 (200 mg QD): 0 n (%)
- Fatigue, all grades (200 mg QD): 0 n (%)
- Fatigue, grade ≥3 (200 mg QD): 0 n (%)
- Hypotension, all grades (200 mg QD): 0 n (%)
- Hypotension, grade ≥3 (200 mg QD): 0 n (%)
- Nausea, all grades (200 mg QD): 2 (50.0) n (%)
- Nausea, grade ≥3 (200 mg QD): 1 (25.0) n (%)
- Patients with ≥1 AE, all grades (200 mg QD): 4 (100) n (%)
- Patients with ≥1 AE, grade ≥3 (200 mg QD): 2 (50.0) n (%)
- Rash, all grades (200 mg QD): 0 n (%)
- Rash, grade ≥3 (200 mg QD): 0 n (%)
- Vomiting, all grades (200 mg QD): 2 (50.0) n (%)
- Vomiting, grade ≥3 (200 mg QD): 1 (25.0) n (%)
- ALT increased, all grades (300 mg BID (RDE)): 5 (27.8) n (%)
- ALT increased, grade ≥3 (300 mg BID (RDE)): 1 (5.6) n (%)
- AST increased, all grades (300 mg BID (RDE)): 3 (16.7) n (%)
- AST increased, grade ≥3 (300 mg BID (RDE)): 1 (5.6) n (%)
- Asthenia, all grades (300 mg BID (RDE)): 4 (22.2) n (%)
- Asthenia, grade ≥3 (300 mg BID (RDE)): 0 n (%)
- Blood creatinine increased, all grades (300 mg BID (RDE)): 2 (11.1) n (%)
- Blood creatinine increased, grade ≥3 (300 mg BID (RDE)): 0 n (%)
- Constipation, all grades (300 mg BID (RDE)): 1 (5.6) n (%)
- Constipation, grade ≥3 (300 mg BID (RDE)): 0 n (%)
- Diarrhoea, all grades (300 mg BID (RDE)): 11 (61.1) n (%)
- Diarrhoea, grade ≥3 (300 mg BID (RDE)): 1 (5.6) n (%)
- Dry skin, all grades (300 mg BID (RDE)): 4 (22.2) n (%)
- Dry skin, grade ≥3 (300 mg BID (RDE)): 0 n (%)
- Fatigue, all grades (300 mg BID (RDE)): 3 (16.7) n (%)
- Fatigue, grade ≥3 (300 mg BID (RDE)): 0 n (%)
- Hypotension, all grades (300 mg BID (RDE)): 3 (16.7) n (%)
- Hypotension, grade ≥3 (300 mg BID (RDE)): 0 n (%)
- Nausea, all grades (300 mg BID (RDE)): 14 (77.8) n (%)
- Nausea, grade ≥3 (300 mg BID (RDE)): 0 n (%)
- Patients with ≥1 AE, all grades (300 mg BID (RDE)): 17 (94.4) n (%)
- Patients with ≥1 AE, grade ≥3 (300 mg BID (RDE)): 2 (11.1) n (%)
- Rash, all grades (300 mg BID (RDE)): 4 (22.2) n (%)
- Rash, grade ≥3 (300 mg BID (RDE)): 0 n (%)
- Vomiting, all grades (300 mg BID (RDE)): 7 (38.9) n (%)
- Vomiting, grade ≥3 (300 mg BID (RDE)): 0 n (%)
- ALT increased, all grades (300 mg QD): 3 (20.0) n (%)
- ALT increased, grade ≥3 (300 mg QD): 1 (6.7) n (%)
- AST increased, all grades (300 mg QD): 1 (6.7) n (%)
- AST increased, grade ≥3 (300 mg QD): 1 (6.7) n (%)
- Asthenia, all grades (300 mg QD): 3 (20.0) n (%)
- Asthenia, grade ≥3 (300 mg QD): 0 n (%)
- Blood creatinine increased, all grades (300 mg QD): 1 (6.7) n (%)
- Blood creatinine increased, grade ≥3 (300 mg QD): 0 n (%)
- Constipation, all grades (300 mg QD): 1 (6.7) n (%)
- Constipation, grade ≥3 (300 mg QD): 0 n (%)
- Diarrhoea, all grades (300 mg QD): 4 (26.7) n (%)
- Diarrhoea, grade ≥3 (300 mg QD): 0 n (%)
- Dry skin, all grades (300 mg QD): 1 (6.7) n (%)
- Dry skin, grade ≥3 (300 mg QD): 0 n (%)
- Fatigue, all grades (300 mg QD): 7 (46.7) n (%)
- Fatigue, grade ≥3 (300 mg QD): 0 n (%)
- Hypotension, all grades (300 mg QD): 1 (6.7) n (%)
- Hypotension, grade ≥3 (300 mg QD): 0 n (%)
- Nausea, all grades (300 mg QD): 9 (60.0) n (%)
